Tests used:
t-PA = target: T1, t-PA (Homo sapiens, UniProt P00750); experiment: Serine protease selectivity, chromogenic substrate (Kass), t-PA; format: biochemical; details: substrate H-D-Ile-Pro-Arg-p-nitroanilide
T1 construct: purchased American Diagnostica, Greenwich, Conn
Method: (§1) The assay is carried out by mixing 50 μL buffer (0.03M Tris, 0.15M NaCl, pH 7.4) with 25 μL of bovine thrombin or human thrombin solution (0.21 mg/mL of thrombostat bovine thrombin, Parke-Davis, or purified human thrombin, Enzyme Research Laboratories, South Bend, Ind., at about 8 NIH units/mL, in the same buffer) and 25 μL of test compound in a solvent (in 50% aqueous methanol, v:v). The 150 μL of an aqueous solution of the chromogenic substrate (at 0.25 mg/mL) are added and the rates of hydrolysis of the substrate are measured by monitoring the reactions at 405 nm for the release of p-nitroaniline. Standard curves are constructed by plotting free thrombin concentration against hydrolysis rate. The hydrolysis rates observed with test compounds are then converted to "free thrombin" values in the respective assays by use of the standard curves. The bound thrombin (bound to test compound) is calculated by subtracting the amount of free thrombin observed in each assay from the known initial amount of thrombin used in the assay. The amount of free inhibitor in each assay is calculated by subtracting the number of moles of bound thrombin from the number of moles of added inhibitor (test compound).
(§2) Kass is calculated for a range of concentrations of test compounds and the mean value is reported in units of liter per mole.
(§3) By substantially following the procedures described above for human thrombin, and using other human blood coagulation system serine proteases and proteases of the fibrinolytic system with the appropriate chromogenic substrates, identified below, selectivity of the compounds of the present invention with respect to the coagulation factor serine proteases and with respect to the fibrinolytic system serine proteases are evaluated as well as their substantial lack of interference with serine proteases of the fibrinolytic system. Thrombin inhibitors preferably should spare fibrinolysis induced by urokinase, tissue plasminogen activator (t-PA) and streptokinase. This would be important to the therapeutic use of such agents as an adjunct to streptokinase, t-PA or urokinase thrombolytic therapy and to the use of such agents as an endogenous fibrinolysis-sparing (with respect to t-PA and urokinase) antithrombotic agent. In addition to the lack of interference with the amidase activity of the fibrinolytic proteases, such fibrinolytic system sparing can be studied by the use of human plasma clots and their lysis by the respective fibrinolytic plasminogen activators.
(§4) Human plasmin is purchased from Boehringer Mannheim, Indianapolis, Ind.; nt-PA is purchased as single chain activity reference from American Diagnostica, Greenwich, Conn.; modified-t-PA6 (mt-PA6) is prepared at Eli Lilly and Company by procedure known in the art (See, Burck, et al., J. Biol. Chem., 265, […] (1990). Plasmin chromogenic substrate H-D-Val-Leu-Lys-p-nitroanilide and tissue plasminogen activator (t-PA) substrate H-D-Ile-Pro-Arg-p-nitroanilide are purchased from Kabi Vitrum, Stockholm, Sweden.

Trypsin = target: T2, Trypsin (Bos taurus, UniProt P00760); experiment: Serine protease selectivity, chromogenic substrate (Kass), trypsin; format: biochemical, bovine; details: substrate N-Benzoyl-Phe-Val-Arg-p-nitroanilide
T2 construct: Bovine trypsin is purchased; purchased Worthington Biochemicals, Freehold, N.J
T2 sequence (P00760 24-246): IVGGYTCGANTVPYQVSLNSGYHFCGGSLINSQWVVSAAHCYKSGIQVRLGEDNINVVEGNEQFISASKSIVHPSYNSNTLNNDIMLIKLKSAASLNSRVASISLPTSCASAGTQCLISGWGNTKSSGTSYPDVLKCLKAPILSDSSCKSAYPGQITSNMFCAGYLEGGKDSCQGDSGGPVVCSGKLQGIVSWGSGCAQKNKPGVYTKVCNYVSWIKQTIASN
Method: as §1, §2, §3
(§5) Human factors X, Xa, IXa, XIa, and XIIa are purchased from Enzyme Research Laboratories, South Bend, Ind.; human urokinase from Leo Pharmaceuticals, Denmark; and recombinant activated Protein C (aPC) is prepared at Eli Lilly and Co. substantially according to U.S. Pat. No. 4,981,952. Chromogenic substrates: N-Benzoyl-Ile-Glu-Gly-Arg-p-nitroanilide (for factor Xa); N-Cbz-D-Arg-Gly-Arg-p-nitroanilide (for factor IXa assay as the factor Xa substrate); Pyroglutamyl-Pro-Arg-p-nitroanilide (for Factor XIa and for aPC); H-D-Pro-Phe-Arg-p-nitroanilide (for factor XIIa); and Pyroglutamyl-Gly-Arg-p-nitroanilide (for urokinase); are purchased from KabiVitrum, Stockholm, Sweden, or from Midwest Biotech, Fishers, Ind. Bovine trypsin is purchased from Worthington Biochemicals, Freehold, N.J., and human plasma kallikrein from Kabi Vitrum, Stockholm, Sweden. Chromogenic substrate H-D-Pro-Phe-Arg-p-nitroanilide for plasma kallikrein is purchased from Kabi Vitrum, Stockholm, Sweden. N-Benzoyl-Phe-Val-Arg-p-nitroanilide, the substrate for human thrombin and for trypsin, is synthesized according to procedures described above for the compounds of the present invention, using known methods of peptide coupling from commercially available reactants or purchased from Midwest Biotech, Fishers, Ind.

Human Thrombin = Human Thrombin (Homo sapiens, UniProt P00734); experiment: Inhibition of amidase activity of thrombin (Kass); format: biochemical; details: apparent association constant, mean over a range of concentrations
Method: as §1
The Kass value is the hypothetical equilibrium constant for the reaction between thrombin and the test compound (I). [drawing 54]
as §2

Human plasma [1] = experiment: Human plasma anticoagulation, activated partial thromboplastin time (APTT); format: biochemical; details: concentration required to double the APTT, linear extrapolation
Method: (§6) Dog plasma and rat plasma is obtained from conscious mixed-breed hounds (either sex, Hazelton-LRE, Kalamazoo, Mich., U.S.A.) or from anesthetized male Sprague-Dawley rats (Harlan Sprague-Dawley, Inc., Indianapolis, Ind., U.S.A.) by venipuncture into 3.8 percent citrate. Fibrinogen is prepared from in-date ACD human blood as the fraction I-2 according to previous procedures and specifications. Smith, Biochem. J., 185, 1-11 (1980); and Smith, et al., Biochemistry, 11, 2958-2967 (1972). Human fibrinogen is also purchased as 98 percent pure/plasmin free from American Diagnostica, Greenwich, Conn. Coagulation reagents ACTIN, Thromboplastin, and Human plasma are from Baxter Healthcare Corp., Dade Division, Miami, Fla. Bovine thrombin from Parke-Davis ([…], Mich.) is used for coagulation assays in plasma.
(§7) Coagulation assay procedures are as previously described. Smith, et al., Thrombosis Research, 50, 163-174 (1988). A CoAScreener coagulation instrument (American LABor, Inc.) is used for all coagulation assay measurements. The prothrombin time (PT) is measured by adding 0.05 mL saline and 0.05 mL Thromboplastin-C reagent to 0.05 mL test plasma. The activated partial thromboplastin time (APTT) is measured by incubation of 0.05 mL test plasma with 0.05 mL Actin reagent for 120 seconds followed by 0.05 mL CaCl2 (0.02M). The thrombin time (TT) is measured by adding 0.05 mL saline and 0.05 mL thrombin (10 NIH units/mL) to 0.05 mL test plasma. The compounds of formula I are added to human or animal plasma over a wide range of concentrations to determine prolongation effects on the APTT, PT, and TT assays. Linear extrapolations are performed to estimate the concentrations required to double the clotting time for each assay.

Human plasma [2] = experiment: Human plasma anticoagulation, prothrombin time (PT); format: biochemical; details: concentration required to double the PT, linear extrapolation
Method: as §6, §7

Plasmin = target: T3, Plasmin (Homo sapiens, UniProt P00747); experiment: Serine protease selectivity, chromogenic substrate (Kass), plasmin; format: biochemical; details: substrate H-D-Val-Leu-Lys-p-nitroanilide
T3 construct: Human plasmin is purchased; purchased Boehringer Mannheim, Indianapolis, Ind
T3 sequence (P00747 581-810 limits assumed): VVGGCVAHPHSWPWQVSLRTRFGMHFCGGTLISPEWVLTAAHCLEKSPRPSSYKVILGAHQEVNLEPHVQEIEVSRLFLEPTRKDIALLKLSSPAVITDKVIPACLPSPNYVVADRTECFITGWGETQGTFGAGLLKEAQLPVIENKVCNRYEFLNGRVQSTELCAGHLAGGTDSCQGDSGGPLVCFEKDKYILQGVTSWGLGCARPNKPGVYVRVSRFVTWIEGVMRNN
T3 sequence (P00747 97-580 partner limits assumed): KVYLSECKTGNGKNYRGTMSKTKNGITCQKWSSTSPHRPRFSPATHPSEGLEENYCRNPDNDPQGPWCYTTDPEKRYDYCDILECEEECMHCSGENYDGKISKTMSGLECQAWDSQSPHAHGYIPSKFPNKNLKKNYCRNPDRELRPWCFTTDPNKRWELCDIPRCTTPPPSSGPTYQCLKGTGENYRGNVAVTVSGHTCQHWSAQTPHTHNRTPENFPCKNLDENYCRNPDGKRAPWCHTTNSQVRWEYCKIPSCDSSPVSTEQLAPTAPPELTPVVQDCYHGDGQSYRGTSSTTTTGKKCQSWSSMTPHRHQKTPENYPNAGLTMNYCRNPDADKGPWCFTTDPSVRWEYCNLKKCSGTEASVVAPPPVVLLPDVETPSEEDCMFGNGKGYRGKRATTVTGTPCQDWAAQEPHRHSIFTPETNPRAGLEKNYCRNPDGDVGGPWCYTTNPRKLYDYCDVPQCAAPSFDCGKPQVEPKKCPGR
Method: as §1, §2, §3, §4

Human plasma [3] = experiment: Human plasma anticoagulation, thrombin time (TT); format: biochemical; details: concentration required to double the thrombin time, linear extrapolation
Method: as §6, §7

factor Xa = target: T4, factor Xa (Homo sapiens, UniProt P00742); experiment: Serine protease selectivity, chromogenic substrate (Kass), factor Xa; format: biochemical; details: substrate N-Benzoyl-Ile-Glu-Gly-Arg-p-nitroanilide
T4 construct: Human factors X, Xa, IXa, XIa, and XIIa are purchased; purchased Enzyme Research Laboratories, South Bend, Ind
T4 sequence (P00742 235-488 limits assumed): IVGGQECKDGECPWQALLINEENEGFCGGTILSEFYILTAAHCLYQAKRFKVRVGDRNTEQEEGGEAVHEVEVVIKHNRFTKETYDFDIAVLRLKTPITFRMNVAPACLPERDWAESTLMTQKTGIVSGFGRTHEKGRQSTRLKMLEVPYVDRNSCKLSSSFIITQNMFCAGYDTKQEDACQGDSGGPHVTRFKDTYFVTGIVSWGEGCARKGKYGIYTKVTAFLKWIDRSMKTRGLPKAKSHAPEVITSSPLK
T4 sequence (P00742 41-179 partner limits assumed): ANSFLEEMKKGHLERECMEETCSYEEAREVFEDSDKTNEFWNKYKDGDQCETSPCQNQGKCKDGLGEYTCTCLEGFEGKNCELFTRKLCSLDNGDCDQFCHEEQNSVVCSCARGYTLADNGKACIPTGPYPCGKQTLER
Method: as §1, §2, §3, §5

T1 sequence (P00750 36-562): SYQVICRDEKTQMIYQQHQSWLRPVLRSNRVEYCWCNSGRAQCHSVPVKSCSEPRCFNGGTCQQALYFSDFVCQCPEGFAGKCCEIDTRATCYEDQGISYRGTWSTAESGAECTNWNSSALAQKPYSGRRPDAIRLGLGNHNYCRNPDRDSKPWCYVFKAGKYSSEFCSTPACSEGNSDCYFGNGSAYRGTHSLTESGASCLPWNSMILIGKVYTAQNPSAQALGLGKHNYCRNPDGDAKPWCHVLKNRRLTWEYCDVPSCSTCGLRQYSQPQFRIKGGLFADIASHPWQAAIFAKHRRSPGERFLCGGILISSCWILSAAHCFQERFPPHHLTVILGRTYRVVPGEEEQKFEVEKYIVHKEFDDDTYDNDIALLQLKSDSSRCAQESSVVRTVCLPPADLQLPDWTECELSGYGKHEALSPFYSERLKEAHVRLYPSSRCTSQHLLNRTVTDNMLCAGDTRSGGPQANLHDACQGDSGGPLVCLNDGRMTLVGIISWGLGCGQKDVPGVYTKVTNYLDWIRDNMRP

SMILES	Enzyme Kass, t-PA (t-PA) [L/mol × 10^6]	Enzyme Kass, Trypsin (Trypsin)	Enzyme Kass, Human Thrombin (Human Thrombin) [L/mol × 10^6]	2x Clotting time, APTT (Human plasma [1])	2x Clotting time, PT (Human plasma [2])	Enzyme Kass, Plasmin (Plasmin) [L/mol × 10^6]	2x Clotting time, TT (Human plasma [3])	Enzyme Kass, Xa (factor Xa) [L/mol × 10^6]
CC(C)CC[C@H]1C[C@@H](C(=O)N[C@H](C=O)CCCNC(=N)N)N(C(=O)[C@H]2CCCCN2)C1.Cl.Cl (relative stereo) [Example 4, D-homoprolyl-L-cis-4-isoamyl-prolyl-L-argininal dihydrochloride]	0.19	77 L/mol × 10^6	8.2	630 ng/mL	3,100 ng/mL	2.0	130 ng/mL	7.9
Cl.Cl.N=C(N)NCCC[C@@H](C=O)NC(=O)[C@@H]1C[C@H](c2ccccc2)CN1C(=O)[C@H]1CCCCN1 (relative stereo) [Example 6, D-hPro-Pro(4-cis-phenyl)-ArgH.2 HCl]	0.065	240 L/mol × 10^6	2.9	840 ng/mL	4,100 ng/mL	5.3	340 ng/mL	5.7
CC(C)CC[C@H]1C[C@@H](C(=O)N[C@H](C=O)CCCNC(=N)N)N(C(=O)[C@H]2CC3CCCCC3CN2)C1.Cl.Cl (relative stereo) [Example 27, D-3-cis-Piq-Pro(4-cis-isoamyl)-ArgH.2 HCl]		633 L/mol × 10^6	5.4	395 ng/mL	1,232 ng/mL	14.0	116 ng/mL	11.6
CC(C)CC[C@H]1C[C@@H](C(=O)N[C@H](C=O)CCCNC(=N)N)N(C(=O)C2NCCC3CCCCC32)C1.Cl.Cl (relative stereo) [Example 28, 1-Piq-Pro(4-cis-isoamyl)-ArgH.2 HCl]		20.30 L/mol × 10^6	0.41	22,727 ng/mL	43,401 ng/mL	0.27	3,637 ng/mL	0.14
Cl.Cl.N=C(N)NCCCC(C=O)NC(=O)C1CC2CCCCC2N1C(=O)C1CC2CCCCC2CN1 [Example 25, D-3-cis-Piq-cis-Ohi-ArgH.2 HCl]		1,040 L/mol × 10^6	82	548 ng/mL	1,232 ng/mL	12.4	25 ng/mL	0.67
Cl.Cl.NC(N)=NCCCC(C=O)NC(=O)C1CC(Oc2ccccc2)CN1C(=O)C1CC2CCCCC2CN1 [Example 26, D-3-cis-Piq-Pro(4-cis-phenoxy)-ArgH.2 HCl]		718 L/mol × 10^6	15.6	392 ng/mL	1,322 ng/mL	11.3	82 ng/mL	2.53

Reference: US5599793A, “Antithromobotic agents” (Eli Lilly and Company, priority 1995, dated 1997)
